How the values were obtained:
[1] = tested on: spontaneously hypertensive rats (SHR); experiment: Pharmacological Experiment 1: hypotensive effects, systolic blood pressure at one hour after oral administration, tail cuff method; type: in vivo, rat; details: SHR P.O., 30 mg/kg
Protocol: Pharmacological Experiment 1: hypotensive effects
To spontaneously hypertensive rats (SHR) weighing 350-450 g (3-5 per group) was orally administered a test compound (30 mg/kg) dissolved in 0.5% hydroxypropylmethylcellulose, and systolic blood pressure at one hour after administration was determined by tail cuff method to examine hypotensive effects.

thoracic aorta = experiment: Pharmacological Experiment 2: vasodilating effects, relaxation of phenylephrine-contracted thoracic aorta rings; type: cell-based; details: Oryctolagus cuniculus; rabbit thoracic aorta rings contracted with phenylephrine (10^-6 M); contraction by phenylephrine as 100%; read-out: vasodilating action (concentration necessary for 50% relaxation, IC50)
Protocol: Pharmacological Experiment 2: vasodilating effects
Male rabbits (body weight 1.9-3.0 kg) were anesthetized with sodium pentobarbital and killed by exsanguinity. The thoracic aorta was removed and about 2 mm wide ring specimens were prepared. The specimens were hung in a 40 ml Magnus bath filled with Krebs-Henseleit solution (NaCl 117 mM; KCl 4.7 mM; CaCl2 2.5 mM; MgSO4 1.2 mM; NaHCO3 24.8 mM; KH2 PO4 1.2 mM; glucose 11.0 mM) at 37° C. at a load of 2 g. The Magnus bath was constantly aerated with a mixed gas (95% oxygen+5% carbon dioxide). The tension of the specimens was measured by isometric transducer (TB-611T, Nihon Koden). The specimens were contracted with phenylephrine (10^-6 M) and when the contraction became constant, the compound was cumulatively added to observe relaxing response. The relaxing response by the compound was calculated relative to contraction by phenylephrine as 100% as the concentration necessary for 50% relaxation (IC50, μM).

tracheal specimen = experiment: Pharmacological Experiment 3: effect on contraction caused by acetylcholine in extracted tracheal specimen; type: cell-based; details: Cavia porcellus; guinea pig trachea contracted with acetylcholine (10^-6 M); relative to maximum response by papaverine (10^-4 M) as 100%; read-out: bronchodilative action (IC50)
Protocol: Pharmacological Experiment 3: Effect on contraction caused by acetylcholine in tracheal specimen extracted from guinea pig
Male Hartley guinea pigs (body weight 260-390 g) were anesthetized by intraperitoneal administration of pentobarbital sodium (100 mg/kg) and killed by exsanguinity. The trachea was removed and ventral cartilage was cut open and ligament was cut in 3 mm width to prepare specimens. The specimens were hung in a 40 ml Magnus bath filled with Krebs-Henseleit solution (NaCl 117 mM; KCl 4.7 mM; CaCl2 2.5 mM; MgSO4 1.2 mM; NaHCO3 24.8 mM; KH2 PO4 1.2 mM; glucose 11.0 mM) at 37° C. at a load of 1 g. The Magnus bath was constantly aerated with a mixed gas (95% oxygen+5% carbon dioxide). The tension of the specimens was measured by isometric transducer (TB-611T, Nihon Koden) and recorded on a recorder (Ti-102, Tokai Irika). The specimens were contracted with acetylcholine (10^-6 M) and when the contraction became constant, the compound was cumulatively added to observe relaxing response. The relaxing response by the compound was calculated relative to maximum response by papaverine (10^-4 M) as 100% as the concentration necessary for 50% relaxation (IC50, μM).

Structure (SMILES) | hypotensive effect [1] | IC50 (thoracic aorta) | IC50 (tracheal specimen)
C[C@@H](N)c1ccc(C(=O)Nc2ccncc2)cc1 [Example 1, (R)-N-(4-pyridyl)-4-(1-aminoethyl)benzamide] | -116 mmHg |  | 
C[C@@H](N)c1ccc(C(=O)Nc2ccnc3[nH]ccc23)cc1 [Example 9, (R)-(+)-N-(1H-pyrrolo[2,3-b]pyridin-4-yl)-4-(1-aminoethyl)benzamide] | -131 mmHg | 50 nM | 50 nM
C[C@@H](N)c1ccc(C(=O)Nc2ccnc3[nH]ccc23)cc1N=[N+]=[N-] [Example 150, (R)-(-)-N-(1H-pyrrolo[2,3-b]pyridin-4-yl)-4-(1-aminoethyl)-3-azidobenzamide] |  | 30 nM | 
